Measured values as given in patent US12492193B2, “Pyrazole derivatives for the treatment of cystic fibrosis” (Fondazione Istituto Italiano Di Tecnologia, priority 2017, dated 2025).

Molecular target: T1, mutant CFTR (Homo sapiens, UniProt P13569, DEL508-508)
T1 construct: expressed in transfected cells
Assay: Fluorescence (HS-YFP) assay for CFTR activity, corrector assay
Type: cell-based
Conditions: CFBE41o- and FRT cells with stable expression of mutant CFTR, 24 h compound treatment
Experimental: Fluorescence Assay for CFTR Activity
Mutant CFTR activity was determined with the functional assay based on the halide-sensitive yellow fluorescent protein, HS-YFP (Galietta et al., FEBS Lett 499: 220-224, 2001). CFBE41o- and FRT cells with stable expression of mutant CFTR and HS-YFP were plated on clear-bottom 96-well black microplates (Code 3603, Corning Life Sciences) at a density of 50,000 cells/well and kept at 37° C. in 5% CO2 for 24 hours. For the corrector assay, cells were treated for further 24 hours with test compounds, vehicle (DMSO), or the positive control VX-809. After treatment, the culture medium was removed and cells in each well were stimulated for 30 min at 37° C. with 60 μL PBS (containing 137 mM NaCl, 2.7 mM KCl, 8.1 mM Na2HPO4, 1.5 mM KH2PO4, 1 mM CaCl2, and 0.5 mM MgCl2) plus forskolin (20 μM) and genistein (50 μM).
For determination of potentiator activity on G551D-CFTR or G1349D-CFTR, cells were directly stimulated with forskolin plus test compound without previous incubation at low temperature. At the time of assay, microplates carrying CFBE41o- or FRT cells were transferred to microplate readers (BMG Labtech) equipped with high-quality excitation (HQ500/20X: 500±10 nm) and emission (HQ535/30M: 535±15 nm) filters for YFP (Chroma Technology). The assay consisted of a continuous 14 s fluorescence reading with 2 s before and 12 s after injection of an iodide-containing solution (165 μL of a modified PBS containing I^− instead of Cl^−; final I^− concentration in the well: 100 mM). Data were normalized to the initial background-subtracted fluorescence. Enhanced CFTR activity, induced by correctors and/or potentiators, results in accelerated I^− influx that in turn causes faster HS-YFP quenching (Pedemonte et al., Mol Pharmacol 68:1736-1746, 2005; Pedemonte et al., J Clin Invest 115:2564-2571, […]). To determine fluorescence quenching rate associated with I^− influx, the […] 10 s of data for each well were fitted with an exponential function to extrapolate initial slope (dF/dt).
EC50 obtained are illustrated in table 1 wherein +: EC50>2 μM; ++: 1.0 μM<EC50<2 μM; +++: EC50<1 μM.

T1 sequence (P13569 with tags, fused parts or gaps DEL508-508): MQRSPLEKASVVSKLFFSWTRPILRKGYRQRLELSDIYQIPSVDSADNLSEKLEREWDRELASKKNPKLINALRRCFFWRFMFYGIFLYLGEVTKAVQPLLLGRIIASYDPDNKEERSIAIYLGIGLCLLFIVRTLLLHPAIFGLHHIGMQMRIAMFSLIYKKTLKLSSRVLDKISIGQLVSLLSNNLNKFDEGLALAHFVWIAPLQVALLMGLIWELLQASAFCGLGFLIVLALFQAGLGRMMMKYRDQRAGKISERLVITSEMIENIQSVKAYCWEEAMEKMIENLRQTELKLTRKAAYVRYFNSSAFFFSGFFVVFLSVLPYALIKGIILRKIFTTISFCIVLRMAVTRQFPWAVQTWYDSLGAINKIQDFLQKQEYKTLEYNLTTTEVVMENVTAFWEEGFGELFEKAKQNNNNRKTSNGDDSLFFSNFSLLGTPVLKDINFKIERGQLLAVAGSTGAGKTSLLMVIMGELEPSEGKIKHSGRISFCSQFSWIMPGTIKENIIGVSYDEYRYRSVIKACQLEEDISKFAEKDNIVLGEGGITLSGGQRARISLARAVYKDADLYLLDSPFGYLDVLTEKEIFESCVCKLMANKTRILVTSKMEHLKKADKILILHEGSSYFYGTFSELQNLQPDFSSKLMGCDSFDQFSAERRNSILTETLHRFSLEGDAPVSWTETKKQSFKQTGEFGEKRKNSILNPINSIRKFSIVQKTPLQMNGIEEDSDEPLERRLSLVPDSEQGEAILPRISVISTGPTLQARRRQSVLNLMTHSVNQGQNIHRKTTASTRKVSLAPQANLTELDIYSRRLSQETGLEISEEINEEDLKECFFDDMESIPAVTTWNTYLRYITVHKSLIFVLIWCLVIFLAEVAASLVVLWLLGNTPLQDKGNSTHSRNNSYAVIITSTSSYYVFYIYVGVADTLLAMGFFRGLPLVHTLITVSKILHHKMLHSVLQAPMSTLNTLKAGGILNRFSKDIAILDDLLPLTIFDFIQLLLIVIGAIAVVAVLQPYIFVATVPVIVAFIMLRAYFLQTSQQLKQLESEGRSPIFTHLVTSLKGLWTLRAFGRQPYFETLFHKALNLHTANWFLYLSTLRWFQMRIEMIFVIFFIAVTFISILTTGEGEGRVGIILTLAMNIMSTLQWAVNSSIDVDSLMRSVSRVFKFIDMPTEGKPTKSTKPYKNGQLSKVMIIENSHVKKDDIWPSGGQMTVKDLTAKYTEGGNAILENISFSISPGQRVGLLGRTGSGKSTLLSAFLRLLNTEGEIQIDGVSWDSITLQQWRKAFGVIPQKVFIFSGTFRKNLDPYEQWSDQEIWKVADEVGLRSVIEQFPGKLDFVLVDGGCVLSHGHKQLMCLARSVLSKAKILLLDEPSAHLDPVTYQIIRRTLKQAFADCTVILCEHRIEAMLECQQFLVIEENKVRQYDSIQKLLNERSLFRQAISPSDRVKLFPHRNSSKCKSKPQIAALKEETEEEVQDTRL

SMILES | EC50 [µM]
Cc1nn(-c2cccc(C(=O)Nc3ccc4c(c3)NCCO4)c2)c(C)c1Cl [Int-016, 3-(4-Chloro-3,5-dimethyl-pyrazol-1-yl)-N-(3,4-dihydro-2H-1,4-benzoxazin-6-yl)benzamide] | > 2
Cc1nn(-c2cccc(C(=O)N(C)c3ccc4c(c3)OCO4)c2)c(C)c1C#N [compound 081, N-(1,3-Benzodioxol-5-yl)-3-(4-cyano-3,5-dimethyl-pyrazol-1-yl)-N-methyl-benzamide] | > 2
Cc1c(Cl)c(CO)nn1-c1cccc(C(=O)N(C)c2ccc3c(c2)OCO3)c1 [compound 073, N-(1,3-Benzodioxol-5-yl)-3-[4-chloro-3-(hydroxylmethyl)-5-methyl-pyrazol-1-yl]-N-methyl-benzamide] | > 2
Cc1cc(C(=O)O)n(-c2cccc(C(=O)N(C)c3ccc4c(c3)OCO4)c2)n1 [compound 065, 2-[3-[1,3-benzodioxol-5-yl(methyl)carbamoyl]phenyl]-5-methyl-pyrazole-3-carboxylic acid] | > 2
Cc1nn(-c2cccc(C(=O)N(C)c3ccc4c(c3)OCO4)c2)c(C)c1C(=O)O [compound 048, 1-[3-[1,3-Benzodioxol-5-yl(methyl)carbamoyl]phenyl]-3,5-dimethyl-pyrazole-4-carboxylic acid] | > 2
CN(C(=O)c1cccc(-n2cc(Cl)cn2)c1)c1ccc2c(c1)OCCO2 [compound 033, 3-(4-Chloropyrazol-1-yl)-N-(2,3-dihydro-1,4-benzodioxin-6-yl)-N-methyl-benzamide] | > 2
Cc1nn(-c2cccc(C(=O)N(C)c3ccc4c(c3)OCCN4)c2)c(C)c1Cl [compound 036, 3-(4-Chloro-3,5-dimethyl-pyrazol-1-yl)-N-(3,4-dihydro-2H-1,4-benzoxazin-4-ium-7-yl)-N-methyl-benzamide 2,2,2-trifluoroacetate] | > 2
Cc1nn(-c2cccc(C(=O)N(C)c3ccc4c(c3)OCO4)c2)c(C(=O)O)c1Cl [compound 083, 2-[3-[1,3-Benzodioxol-5-yl(methyl)carbamoyl]phenyl]-4-chloro-5-methyl-pyrazole-3-carboxylic acid] | > 2

Second part, the compound after the results:

EC50 [µM] | SMILES
< 1 | CN(C(=O)c1cccc(-n2nc(C(F)(F)F)cc2O[C@H]2CC[C@@H](C(=O)O)CC2)c1)c1ccc2c(c1)OCO2 [compound 216, Cis-4-[2-[3-[1,3-benzodioxol-5-yl(methyl)carbamoyl]phenyl]-5-(trifluoromethyl)pyrazol-3-yl]oxycyclohexane carboxylic acid]
1 to 2 | Cc1cc2c(cc1N(C)C(=O)c1cccc(-n3nc(C)c(Cl)c3C)c1)OCO2 [compound 042, 3-(4-chloro-3,5-dimethyl-pyrazol-1-yl)-N-methyl-N-(6-methyl-1,3-benzodioxol-5-yl)benzamide]
< 1 | Cc1c(Cl)c(C(F)(F)F)nn1-c1cccc(C(=O)Nc2cc3c(cc2CO)OCO3)c1 [Int-167, 3-[4-chloro-5-methyl-3-(trifluoromethyl)pyrazol-1-yl]-N-[6-(hydroxymethyl)-1,3-benzodioxol-5-yl]benzamide]
< 1 | CN(C(=O)c1cccc(-n2nc(C(F)(F)F)c(Cl)c2OCc2ccc(C(=O)OC(C)(C)C)cc2)c1)c1ccc2c(c1)OC(F)(F)O2 [compound 201, Tert-butyl 4-[[4-chloro-2-[3-[(2,2-difluoro-1,3-benzodioxol-5-yl)-methyl-carbamoyl]phenyl]-5-(trifluoromethyl)pyrazol-3-yl]oxymethyl]benzoate]
< 1 | Cc1nc2ccc(N(C)C(=O)c3cccc(-n4nc(C(F)(F)F)cc4OCc4ccc(C(=O)O)cc4)c3)cc2o1 [compound 195, 4-[[2-[3-[Methyl-(2-methyl-1,3-benzoxazol-6-yl)carbamoyl]phenyl]-5-(trifluoromethyl)pyrazol-3-yl]oxymethyl]benzoic acid]
< 1 | CCOc1cc(C(F)(F)F)nn1-c1cccc(C(=O)N(C)c2ccc3c(c2)OCO3)c1 [compound 158, N-(1,3-benzodioxol-5-yl)-3-[5-ethoxy-3-(trifluoromethyl)pyrazol-1-yl]-N-methyl-benzamide]
